Assay results: paper PMC9598926, “Design and Synthesis of (Z)-5-(Substituted benzylidene)-3-cyclohexyl-2-thioxothiazolidin-4-one Analogues as Anti-Tyrosinase and Antioxidant Compounds: In Vitro and In Silico Insights” (Antioxidants, 2022)

What was measured:
[1] = Peroxynitrite (ONOO−) scavenging activity assay (DHR 123, SIN-1); conditions: SIN–1 10 µM; 5, 10, 20 µM
Protocol: 2.14. Peroxynitrite (ONOO^−) Scavenging Activity Assay
Peroxynitrite-scavenging activities were determined as described by Kooy et al. with modification. This method monitors the fluorescence of rhodamine 123, which is formed rapidly when non-fluorescent DHR 123 (dihydrorhodamine 123) (Molecular Probes, Eugene, OR, USA) in the presence of peroxynitrite. The rhodamine buffer solution (pH 7.4) included of 50 mM sodium phosphate, 90 mM sodium chloride, 5 mM potassium chloride, and 100 µM DTPA. The final concentration of DHR 123 was 5 µM. In this assay, the buffer solution was prepared prior to use and then stood on ice. Test compounds (10 µL, final concentrations: 5, 10, and 20 µM) dissolved in DMSO and added to 10 µL SIN-1 (10 µM) and 180 µL rhodamine buffer solution in the wells of a black 96-well plate. Fluorescence intensities of oxidized DHR 123 were measured using a fluorescence plate reader (Berthold Advances GmbH & Co., Bad Wildbad, Germany) with an excitation and emission wavelengths of 485 and 535 nm, respectively. Peroxynitrite scavenging activity was calculated after subtracting background fluorescence from final fluorescence intensity. Results are expressed as means ± standard deviation (SD), and L-penicillamine was used as a positive control.
Several RNS (reactive nitrogen species), including peroxynitrite (ONOO^–) and nitric oxide, are known to be involved in the induction of the melanogenesis. Therefore, we investigated the effects of analogs 1–8 on peroxynitrite scavenging activity using DHR123 (dihydrorhodamine) as a ROS indicator and SIN–1 as an RNS generator. Peroxynitrite generated by SIN–1 oxidizes DHR123 to rhodamine 123, a fluorescent compound. Thus, the effects of analogs on peroxynitrite scavenging ability were determined by measuring rhodamine 123 fluorescence.

[2] = target: mushroom tyrosinase; assay: Mushroom tyrosinase activity assay (L-tyrosine as substrate); type: biochemical; conditions: mushroom tyrosinase, means ± SEMs of triplicate determinations
Protocol: 2.2. […] In brief, 20 µL of an aqueous mushroom tyrosinase solution (1000 units/mL) and 170 µL of a substrate mixture containing 345 µM of L-tyrosine and 17.2 mM of sodium phosphate buffer (pH 6.5) were added to wells of a 96-well microplate. […] Amounts of dopachrome produced were assessed by measuring optical densities at 475 nm using a microplate reader (VersaMax®, Molecular Devices, Sunnyvale, CA, USA). […] Experiments were independently conducted three times.

[3] = ABTS cation radical scavenging activity assay; conditions: test sample 100 µM, 2 min in the dark
Protocol: 2.12. ABTS Cation Radical Scavenging Activity Assay
The free radical scavenging activities of analogs 1–8 and Trolox were determined using an ABTS radical cation decolorization assay (SEJIN CI Co., Seoul, Korea), as previously described with minor modification. Trolox was used as the positive control. ABTS radicals were produced by adding 10 mL of 7 mM ABTS in distilled water to 10 mL of 2.45 mM aqueous potassium persulfate solution. The mixture was kept in the dark for 12–16 h at RT until the reaction was complete and absorbance had stabilized. The prepared free radical solution was then diluted with methyl alcohol so that the optical density at 734 nm was 0.70 ± 0.02. Test samples (10 µL, final concentration at 100 µM) dissolved in EtOH/DMSO (9:1 v/v) were added to the diluted free radical solution (90 µL) in a 96-well plate. After standing at RT for 2 min in the dark, well absorbances were measured at 734 nm, and ABTS radical scavenging activities were calculated using the following formula:ABTS free radical scavenging activity (%) = (Ac − As) × 100/Ac(2) where Ac indicates the absorbance of the non-treated control, and As indicates the absorbances of test samples. Experiments were conducted independently 3 times.
The ABTS (2,2′-azino-bis(3-ethylbenzothiazoline-6-sulfonic acid)) cation radical scavenging assay is also commonly used to evaluate antioxidant effects. ABTS is converted to the ABTS radical cation by the transfer of one electron to potassium persulfate. Trolox was used as the positive control, and assays were performed at a test sample (analogs 1–8 and Trolox) concentration of 100 µM. The ABTS radical solution obtained by a reaction of ABTS with potassium persulfate was mixed with test samples and left in the dark for 2 min. ABTS radical scavenging abilities were evaluated by measuring absorbances at 734 nm. […] On the other hand, analog 1 with a 4-hydroxyphenyl group, and analogs 7 and 8 with bromo substituents on the β-phenyl ring weakly scavenged the ABTS radical (16.6–24.8% scavenging). […] Furthermore, the results for ABTS and DPPH radical scavenging activities were similar.

[4] = ROS scavenging activity assay (DCFH-DA/esterase, SIN-1); conditions: SIN–1 10 µM; 5, 10, 20 µM
Protocol: 2.13. ROS Scavenging Activity Assay
The ROS scavenging activities of analogs 1–8 and Troloxwere determined as previously described by Ali et al. and Lebel and Bondy. Briefly, 2.5 mM DCFH-DA (2’,7’-dichlorodihydrofluorescein diacetate) (Molecular Probes, Eugene, OR, USA) solution was mixed with esterase (1.5 units/mL) in 50 mM phosphate buffer (pH 7.4), held for 30 min at 37 °C, and keep on ice in the dark until required. Tested compounds (10 µL; final concentrations: 5, 10, and 20 µM) dissolved in DMSO and SIN-1 (3-morpholinosydnonimine) (10 µM) and 180 µL of phosphate buffer in the wells of a black 96-well plate for 30 min. The 50 µL of DCFH-DA-esterase mixture (20 µM) was added. Fluorescence intensities of oxidized DCFH (DCF or 2′,7′-dichlorofluorescein) were measured using a microplate reader (Berthold Advances GmbH & Co., Bad Wildbad, Germany) with excitation and emission wavelengths of 485 and 530 nm, respectively. Trolox was used as the reference control.
Since it has been reported that reactive oxygen species (ROS) are concerned in the regulation of melanogenesis, we examined the ROS scavenging activities of analogs 1–8 using DCFH-DA (2′,7′-dichlorodihydrofluorescein diacetate) and esterase. Trolox and SIN–1 (3-morpholinosydnonimine) were used as the positive control and a ROS generator, respectively. Hydrolysis of DCFA-DA by esterase generates DCFH (2′,7′-dichlorodihydrofluorescein), which reacts with ROS generated by SIN–1 to produce the fluorescent compound DCF (2′,7′-dichlorofluorescein). Thus, ROS scavenging activities of analogs were assessed by measuring DCF fluorescence. […] Test samples including Trolox were treated at three different concentrations (5, 10, or 20 µM).

[5] = DPPH radical scavenging activity assay; conditions: test sample 500 µM, DPPH 0.18 mM, 30 min in the dark
Protocol: 2.11. DPPH Radical Scavenging Activity Assay
The DPPH radical scavenging activities of analogs 1–8 were investigated as previously described with minor modification. L-Ascorbic acid was used as a positive control. In brief, 20 µL of analogs (5 mM) in DMSO or 5 mM L-ascorbic acid in distilled water were mixed with 180 µL of 0.2 mM DPPH in methanol in a 96-well microplate. After the microplate had been stored in the dark for 30 min, optical densities (ODs) were measured at 517 nm using a microplate reader (VersaMax®, Molecular Devices, Sunnyvale, CA, USA). DPPH radical scavenging activities were determined using the following formula:DPPH radical scavenging activity (%) = 100 × (Ac − As)/Ac(1) where Ac indicates the optical density of the non-treated control and As indicates the optical density of test sample. Experiments were conducted independently 3 times.
There is a possibility that compounds with antioxidant properties inhibit the oxidations of tyrosinase substrates, such as L-tyrosine and L-dopa, without interacting with the tyrosinase. Melanin production requires many oxidative processes, including the conversion of L-tyrosine to dopaquinone via L-dopa. Therefore, compounds with antioxidant activity have the potential to inhibit melanogenesis. DPPH (2,2-diphenyl-1-picrylhydrazyl) contains a free radical, and DPPH assays are commonly used to assess antioxidant activity. In this experiment, L-ascorbic acid (an antioxidant) was used as a positive control. The assay was conducted at a test sample and L-ascorbic acid concentration of 500 µM and a DPPH concentration of 0.18 mM. After standing test sample/DPPH mixtures for 30 min in the dark, optical densities were measured to evaluate radical scavenging activities.

[6] = tested on: B16F10 cells; assay: Melanin content analysis in α–MSH plus IBMX stimulated B16F10 cells; type: cell-based, murine; conditions: α–MSH/IBMX stimulated (3.5-fold), 20 µM, 72 h
Protocol: 2.10. Melanin Content Analysis Melanin content assays were performed to determine the effects of analog 3 on cellular melanin formation, as previously described with minor modification. […] Briefly, cultured B16F10 cells were seeded in 6-well culture plates at 1 × 10^4 cells/well and incubated for 12 h under culture conditions to allow them to adhere to well bottoms. […] Cells were then washed twice with PBS and detached from wells by incubation with Trypsin/EDTA. After centrifugation, detached cell pellets were dissolved in 1N–NaOH solution (100 µL), incubated for 1 h at 60 °C, and mixed to solubilize melanin released by cells. The ability of analog 3 to inhibit melanin production was determined by measuring well optical densities (ODs) at 405 nm using a microplate reader (VersaMax®, Molecular Devices, Sunnyvale, CA, USA). Melanin contents were calculated by dividing the ODs of samples by the control OD. Experiments were conducted independently 3 times. […] Thus, B16F10 cells were treated with analog 3 (0, 5, 10, or 20 µM) for 1 h and then stimulated with α–MSH (1 µM) plus IBMX (200 µM) for 72 h. Melanin contents were assessed by measuring optical densities at 405 nm.

SMILES	IC50 [2] [µM]	ABTS radical scavenging activity [3]	other results
CC(C)(S)C(N)C(=O)O (stereo in doubt) [penicillamine, L-penicillamine, reference compound]			peroxynitrite scavenging [1]: significantly and concentration-dependently reduced
O=C1/C(=C/c2ccc(O)cc2)SC(=S)N1C1CCCCC1 [Analog 1, (Z)-3-Cyclohexyl-5-(4-hydroxybenzylidene)-2-thioxothiazolidin-4-one]	65.4 ± 7.82	16.6–24.8%	ROS scavenging [4]: significantly and concentration-dependently scavenged ROS
COc1cc(/C=C2\SC(=S)N(C3CCCCC3)C2=O)ccc1O [Analog 4, (Z)-3-Cyclohexyl-5-(4-hydroxy-3-methoxybenzylidene)-2-thioxothiazolidin-4-one]	> 200	57.7%	DPPH radical scavenging activity [5]: 72%
COc1ccc(/C=C2\SC(=S)N(C3CCCCC3)C2=O)cc1O [Analog 5, (Z)-3-Cyclohexyl-5-(3-hydroxy-4-methoxybenzylidene)-2-thioxothiazolidin-4-one]	55 ± 11.9	43.5%	
COc1cc(/C=C2\SC(=S)N(C3CCCCC3)C2=O)cc(OC)c1O [Analog 6, (Z)-3-Cyclohexyl-5-(4-hydroxy-3,5-dimethoxybenzylidene)-2-thioxothiazolidin-4-one]	> 200	46.9%	peroxynitrite scavenging compared with penicillamine [1]: more potently than penicillamine
O=C1/C(=C/c2ccc(O)c(Br)c2)SC(=S)N1C1CCCCC1 [Analog 7, (Z)-5-(3-Bromo-4-hydroxybenzylidene)-3-cyclohexyl-2-thioxothiazolidin-4-one]	66.2 ± 9.44	16.6–24.8%	
O=C1/C(=C/c2cc(Br)c(O)c(Br)c2)SC(=S)N1C1CCCCC1 [Analog 8, (Z)-3-Cyclohexyl-5-(3,5-dibromo-4-hydroxybenzylidene)-2-thioxothiazolidin-4-one]	> 200	16.6–24.8%	
Cc1c(C)c2c(c(C)c1O)CCC(C)(C(=O)O)O2 (stereo not shown) [Trolox, reference compound]		79.8%	ROS scavenging [4]: significantly and concentration-dependently scavenged ROS
O=c1cc(CO)occ1O [kojic acid, reference compound]			melanin contents versus non-treated controls [6]: 3.0 fold
